The source of these data is patent US20230190954A1, “COMPOSITION AND METHODS FOR TREATMENT OF PRIMARY CILIARY DYSKINESIA” (TRANSLATE BIO, INC., priority 2020, published 2023).

Assay [1] concerns mouse lungs. As to the kind of experiment: In vivo screen of cationic lipids: FFL mRNA-LNP pulmonary delivery, IVIS luciferase imaging. More on the design: species or system male CD1 mice. The note with it: for potency as determined by the average radiance detected in mouse lungs: FFL mRNA-LNP, single intratracheal administration, about 5 hours post-dose; for selection based on performance in the in vivo screen: about 150 cationic lipids tested; for suitability/performance in liposomes administered through pulmonary delivery via nebulization: mouse, in vivo. As to the method:
In this example, various cationic lipids were tested for in vivo efficacy when mRNA encapsulated in lipid nanoparticles (mRNA-LNP) were administered to mice by pulmonary delivery. The cationic lipids were tested for both potency, as determined by levels of protein production, and tolerability, as determined by side effects associated with clearance and metabolism.
About 150 cationic lipids were tested. (FIG. 9). Each cationic lipid was used in preparing lipid nanoparticles encapsulating mRNA encoding firefly luciferase protein (FFL mRNA) according to methods known in the art. For example, suitable methods for mRNA encapsulation include methods described in International Publication Nos. WO2016/004318 and WO 2018/089801, which is hereby incorporated by reference in its entirety. The tested lipid nanoparticles comprised a lipid component consisting of a cationic lipid, a non-cationic lipid (DOPE), a PEG-modified lipid (DMG-PEG2K), and optionally cholesterol.
Lipid nanoparticle formulations comprising FFL mRNA were administered to male CD1 mice by a single intratracheal administration via nebulization using a Microsprayer®. At approximately 5 hours post-dose, the animals were dosed with luciferin by intraperitoneal injection and all animals were imaged using an IVIS imaging system to measure luciferase production in the lung. […] Some cationic lipids remarkably had greater than 50-fold increase in pulmonary protein expression as compared to other cationic lipids.

Assay [2] deals with mouse lungs. The assay is described as above. More on the design: species or system male CD1 mice. The settings on record: pulmonary-delivered (e.g., nebulized) FFL mRNA in LNP with this cationic lipid, threshold lines in FIG. 9.

For `CCCCC/C=C\C/C=C\CCCCCCCC(=O)OCC(COC(=O)CCCCCCC/C=C\C/C=C\CCCCC)(COC(=O)CCCCCCC/C=C\C/C=C\CCCCC)NCCS(=O)(=O)NCCN(C)C` [GL-TES-SA-DME-E18-2, 2-((2-(N-(2-(dimethylamino)ethyl)sulfamoyl)ethyl)amino)-2-((((9Z,12Z)-octadeca-9,12-dienoyl)oxy)methyl)propane-1,3-diyl (9Z,9′Z,12Z,12′Z)-bis(octadeca-9,12-dienoate)], in the assay with mouse lungs [1], the “potency as determined by the average radiance detected in mouse lungs” value (shortened to “potency as determined”) is listed as “particularly high potency”, the “selection based on performance in the in vivo screen” value (“selection based on performance” for short) was “selected for further investigation” and the “suitability/performance in liposomes administered through pulmonary delivery via nebulization” value (“suitability/performance” below) was “performed particularly well”.
As for `CCCCCCCCCCCCC(O)CN(CCCC(=O)Oc1c(OC)cc(C(=O)OCCCN(C)C)cc1OC)CC(O)CCCCCCCCCCCC` (stereo not shown) [SY-3-E14-DMAPr], in the assay on mouse lungs [1], the “selection based on performance” value is “selected for further investigation”.
As to `CCCCCCCCC(O)CN(CCCC(=O)OCCN1CC(C)N(CCOC(=O)CCCN(CC(O)CCCCCCCC)CC(O)CCCCCCCC)CC1C)CC(O)CCCCCCCC` (stereo not shown) [HEP-E3-E10], in the assay on mouse lungs [1], the “potency as determined” value was “particularly high potency”, the “selection based on performance” value is recorded as “selected for further investigation” and the “suitability/performance” value was “performed particularly well”.
For the compound `CCCCC/C=C\C/C=C\CCCCCCCC(=O)OCC(COC(=O)CCCCCCC/C=C\C/C=C\CCCCC)(COC(=O)CCCCCCC/C=C\C/C=C\CCCCC)NCCS(=O)(=O)NCCCN(C)C` [GL-TES-SA-DMP-E18-2], in the assay on mouse lungs [1], the “potency as determined” value is on record as “particularly high potency”, the “selection based on performance” value is “selected for further investigation” and the “suitability/performance” value is listed as “performed particularly well”.
The matching figures for `CCCCCCCCCCCCCCOC(=O)CC(CC(=O)OCCCCCCCCCCCCCC)(OC(=O)CCN(C)C)C(=O)OCCCCCCCCCCCCCC` [TL1-04D-DMA]: “particularly high potency”, “selected for further investigation” and “performed particularly well”.
With `CCCCCCCCOC(=O)CC(CC(=O)OCCCCCCCC)(OC(=O)CCN(C)C)C(=O)OCCCCCCCC` [TL1-01D-DMA, trioctyl 2-((3-(dimethylamino)propanoyl)oxy)propane-1,2,3-tricarboxylate], in the assay on mouse lungs [1], the “potency as determined” value was “particularly high potency”, the “selection based on performance” value is given as “selected for further investigation” and the “suitability/performance” value is “performed particularly well”.
With `CCCCCCCC(=O)OCCCCCCCCCOC(=O)CC(CC(=O)OCCCCCCCCCOC(=O)CCCCCCC)(OC(=O)CCN(C)C)C(=O)OCCCCCCCCCOC(=O)CCCCCCC` [TL1-10D-DMA], the “selection based on performance” value with mouse lungs [1] was “selected for further investigation”.
As to `CCCCCCCCC(O)CN(CCCCC(=O)OCCN1CC(C)N(CCOC(=O)CCCCN(CC(O)CCCCCCCC)CC(O)CCCCCCCC)CC1C)CC(O)CCCCCCCC` (stereo not shown) [HEP-E4-E10], in the assay on mouse lungs [1], the “potency as determined” value is “particularly high potency”, the “selection based on performance” value is given as “selected for further investigation” and the “suitability/performance” value is “performed particularly well”.
As for `CC(C)CCCC(C)[C@H]1CCC2C3CC=C4C[C@@H](OC(=O)CCc5c[nH]cn5)CC[C@]4(C)C3CC[C@@]21C` (stereo partly shown) [ICE, imidazole cholesterol ester], in the assay with mouse lungs [2], the “historical radiance/expression of pulmonary-delivered FFL mRNA-LNP” value is reported as “around 10^4 p/s/cm^2sr”.
For the compound `CC(C)CCCC(C)C1CCC2C3CC=C4CC(SSCCNC(=N)N)CCC4(C)C3CCC12C` (stereo not shown) [HGT4002], the “selection based on performance” value with mouse lungs [1] is reported as “selected for further investigation”.
